US11919902B2, “Aryl-bipyridine amine derivatives as phosphatidylinositol phosphate kinase inhibitors” (HiberCell, Inc., priority 2017, dated 2024)

Key:
[1] = target: T1, PIP4K2A (full length protein, SignalChem) (Homo sapiens, UniProt P48426); assay: Kinase Assay PIP4K2 A (Sprint); ADP-Glo biochemical assay; conditions: Table 2; compounds listed under IC50 range headings
T1 construct: 4 nM PIP4K2A (full length protein, SignalChem); purchased SignalChem
T1 sequence (P48426 1-406): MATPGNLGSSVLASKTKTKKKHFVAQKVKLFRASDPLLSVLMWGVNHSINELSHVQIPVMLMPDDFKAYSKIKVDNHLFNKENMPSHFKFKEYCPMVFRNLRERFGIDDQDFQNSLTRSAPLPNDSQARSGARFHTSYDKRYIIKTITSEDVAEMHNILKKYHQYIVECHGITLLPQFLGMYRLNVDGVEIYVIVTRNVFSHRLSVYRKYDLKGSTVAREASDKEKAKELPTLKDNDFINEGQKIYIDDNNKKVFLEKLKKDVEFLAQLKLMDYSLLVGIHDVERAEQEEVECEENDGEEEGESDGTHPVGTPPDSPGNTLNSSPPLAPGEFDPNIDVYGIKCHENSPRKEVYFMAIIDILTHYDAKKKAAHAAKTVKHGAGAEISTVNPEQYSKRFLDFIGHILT
Method in brief: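 ADP-Glo luminescence detected ADP after a 1 h RT reaction started with 60 μM ATP solution. Before that, full-length PIP4K2A (4 nM in mix) with 100 μM PI(5)P diC8 was pre-incubated 15 min with compounds in MOPS buffer pH 7.2, 25 mM MgCl2, 0.005% Tween 20. IC50 derived from % inhibition relative to DMSO over 10 three-fold concentrations.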

GST tagged PIP4KtypeIIA = target: T2, GST tagged PIP4KtypeIIA (Homo sapiens, UniProt P48426); assay: ADP-glo kinase assay PIP4K 2A (PIP4KtypeIIA inhibition assay); assay type: biochemical; conditions: Table 3; compounds listed under IC50 range headings; 10 uM ATP, 0.5 nM PIP4KIIA
T2 construct: made in house; host or cells: E. coli
T2 sequence (P48426 1-406): T1 sequence (P48426 1-406)
Method in brief: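 Read-out was ADP-Glo luminescence converted to μM ADP, with IC50 plotted as % of no-inhibitor activity against log concentration. Reactions contained 10 μM ATP, 80 μM PI5P with DOPE carrier, and 0.5 nM GST-tagged PIP4KIIA (E. coli-expressed) in pH 7.3 HEPES/MgCl2 buffer with 5% DMSO. Enzyme and compound (≤4.8 μM) were preincubated 1 h at 27 °C before the 1 h reaction.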

GST tagged PIP4KtypeIIB = target: T3, GST tagged PIP4KtypeIIB (Homo sapiens, UniProt P78356); assay: Trans-FI P kinase assay PIP4K2B (PIP4KtypeIIB inhibition assay); assay type: biochemical; conditions: Table 4; compounds listed under IC50 range headings; 100 uM GTP, 5 nM PIP4KIIB; read-out: Trans-FI P kinase assays: PIP4K2B IC50
T3 construct: made in house; host or cells: E. coli
T3 sequence (P78356 1-416): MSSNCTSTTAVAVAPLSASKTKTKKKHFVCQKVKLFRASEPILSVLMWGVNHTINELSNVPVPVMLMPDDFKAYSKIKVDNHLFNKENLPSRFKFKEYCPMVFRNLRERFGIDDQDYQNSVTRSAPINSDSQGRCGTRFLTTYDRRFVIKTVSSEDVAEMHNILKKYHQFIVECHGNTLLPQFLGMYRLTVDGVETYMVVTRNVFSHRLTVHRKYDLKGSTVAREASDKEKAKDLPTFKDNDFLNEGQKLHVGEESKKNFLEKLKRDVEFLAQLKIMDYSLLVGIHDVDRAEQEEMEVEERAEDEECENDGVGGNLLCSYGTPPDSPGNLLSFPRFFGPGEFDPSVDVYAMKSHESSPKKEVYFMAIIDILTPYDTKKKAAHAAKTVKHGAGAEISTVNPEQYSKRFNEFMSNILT
Method in brief: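 Transcreener FI fluorescence, converted to GDP by calibration, tracked product from 5 nM E. coli-expressed GST-PIP4KIIB acting on 80 uM PI5P (DOPE carrier) with 100 uM GTP. Compound (top 4.8 uM final, 5% DMSO) was preincubated 1 h at 27 C before the 2 h reaction; IC50 fitted from residual activity.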

| Compound | IC50 [1] [µM] | IC50 (GST tagged PIP4KtypeIIA) [µM] | IC50 (GST tagged PIP4KtypeIIB) [µM] |
| --- | --- | --- | --- |
| Cc1[nH]c2ncccc2c1-c1cncc(-c2ccc(C(=O)N(C)C)cc2)c1 [Example 11, N,N-dimethyl-4-(5-(2-methyl-1H-pyrrolo[2,3-b]pyridin-3-yl)pyridin-3-yl)benzamide] | 0.1 to 1 | 0.1 to 1 | 0.1 to 1 |
| CN(C)C(=O)c1ccc(-c2cncc(-c3cnc4c(ccn4C)c3)c2)cc1 [Example 6, N,N-dimethyl-4-(5-(1-methyl-1H-pyrrolo[2,3-b]pyridin-5-yl)pyridin-3-yl)benzamide] | 1 to 2.5 | > 5 | > 5 |
| CC(O)c1cnc2[nH]cc(-c3cncc(-c4ccc(N5CCCC5=O)cc4)c3)c2c1 (stereo not drawn) [Example 48, 1-(4-(5-(5-(1-hydroxyethyl)-1H-pyrrolo[2,3-b]pyridin-3-yl)pyridin-3-yl)phenyl)pyrrolidin-2-one] | 0.005 to 0.1 | 0.1 to 1 | 0.01 to 0.1 |
| O=C1NCCn2c1cc1c(-c3cncc(-c4ccc(N5CCCC5=O)cc4)c3)ccnc12 [Example 45, 4-(5-(4-(2-oxopyrrolidin-1-yl)phenyl)pyridin-3-yl)-8,9-dihydropyrido[3′,2′:4,5]pyrrolo[1,2-a]pyrazin-6(7H)-one] | 0.005 to 0.1 | 0.1 to 1 | 0.01 to 0.1 |
| CN(C)C(=O)c1ccc(-c2cncc(-c3ccnc4ccncc34)c2)cc1 [Example 7, 4-(5-(1,6-naphthyridin-4-yl)pyridin-3-yl)-N,N-dimethylbenzamide] | 2.5 to 5 | > 5 | > 5 |
| CNC(=O)c1cnc2c(c1)c(-c1cncc(-c3ccc(N4CCCC4=O)cc3)c1)cn2C [Example 60, N,1-dimethyl-3-(5-(4-(2-oxopyrrolidin-1-yl)phenyl)pyridin-3-yl)-1H-pyrrolo[2,3-b]pyridine-5-carboxamide] | 0.005 to 0.1 | 0.1 to 1 | 0.1 to 1 |
| CNC(=O)c1cc2c(-c3cncc(-c4ccc(C(=O)N(C)C)cc4)c3)ccnc2o1 [Example 14, 4-(5-(4-(dimethylcarbamoyl)phenyl)pyridin-3-yl)-N-methylfuro[2,3-b]pyridine-2-carboxamide] | 0.1 to 1 | 0.1 to 1 | 0.1 to 1 |
| Cn1cc(-c2cnc(N)c(-c3ccc(N4CCCC4=O)cc3)c2)c2cc(N3CCCC3=O)cnc21 [Example 91, 1-(4-(2-amino-5-(1-methyl-5-(2-oxopyrrolidin-1-yl)-1H-pyrrolo[2,3-b]pyridin-3-yl)pyridin-3-yl)phenyl)pyrrolidin-2-one] | 0.005 to 0.1 | 0.1 to 1 | 0.01 to 0.1 |
| Cc1cnc2[nH]cc(-c3cncc(-c4ccc(N5CCCC5=O)cc4)c3)c2c1 [Example 31, 1-(4-(5-(5-methyl-1H-pyrrolo[2,3-b]pyridin-3-yl)pyridin-3-yl)phenyl)pyrrolidin-2-one] | 0.005 to 0.1 | 0.01 to 0.1 | 0.1 to 1 |
| CNC(=O)c1cc2c(-c3cncc(-c4ccc(C(=O)N(C)C)cc4)c3)ccnc2n1C [Example 13, 4-(5-(4-(dimethylcarbamoyl)phenyl)pyridin-3-yl)-N,1-dimethyl-1H-pyrrolo[2,3-b]pyridine-2-carboxamide] | 1 to 2.5 | 2.5 to 5 | 1 to 2.5 |
| O=C1CCCN1c1ccc(-c2cncc(-c3cn(CC4CCOCC4)c(=O)c4[nH]ncc34)c2)cc1 [Example 69, 4-(5-(4-(2-oxopyrrolidin-1-yl)phenyl)pyridin-3-yl)-6-((tetrahydro-2H-pyran-4-yl)methyl)-1,6-dihydro-7H-pyrazolo[3,4-c]pyridin-7-one] | 0.005 to 0.1 | 1 to 2.5 | 0.1 to 1 |
| CN(C)C(=O)c1ccc(-c2cncc(-c3c[nH]c4ncc(Cl)cc34)c2)cc1 [Example 12, 4-(5-(5-chloro-1H-pyrrolo[2,3-b]pyridin-3-yl)pyridin-3-yl)-N,N-dimethylbenzamide] | 0.005 to 0.1 | 0.1 to 1 | 0.1 to 1 |
| O=C1CCCN1c1ccc(-c2cncc(-c3ccnc4[nH]ccc34)c2)cc1 [Example 58, 1-(4-(5-(1H-pyrrolo[2,3-b]pyridin-4-yl)pyridin-3-yl)phenyl)pyrrolidin-2-one] | 0.005 to 0.1 | 2.5 to 5 | 0.1 to 1 |
| Cn1ncc2c(-c3cncc(-c4ccc(N5CCCC5=O)cc4)c3)cn(CC3CCOCC3)c(=O)c21 [Example 70, 1-methyl-4-(5-(4-(2-oxopyrrolidin-1-yl)phenyl)pyridin-3-yl)-6-((tetrahydro-2H-pyran-4-yl)methyl)-1,6-dihydro-7H-pyrazolo[3,4-c]pyridin-7-one] | 0.005 to 0.1 | 0.1 to 1 | 0.1 to 1 |
| CN1C(=O)Cc2c(-c3cncc(-c4ccc(N5CCCC5=O)cc4)c3)ccnc21 [Example 76, 1-methyl-4-(5-(4-(2-oxopyrrolidin-1-yl)phenyl)pyridin-3-yl)-1,3-dihydro-2H-pyrrolo[2,3-b]pyridin-2-one] | 0.1 to 1 | 2.5 to 5 | 1 to 2.5 |

Other lines, results leading:

| IC50 [1] [µM] | IC50 (GST tagged PIP4KtypeIIA) [µM] | IC50 (GST tagged PIP4KtypeIIB) [µM] | Compound |
| --- | --- | --- | --- |
| < 5 | > 5 | 2.5 to 5 | Nc1ncc(-c2ccnc3[nH]c(C(=O)NCC(F)(F)F)cc23)cc1-c1ccc(C(=O)NCC(F)(F)F)cn1 [Example 139, 4-(2′-amino-5-((2,2,2-trifluoroethyl)carbamoyl)-[2,3′-bipyridin]-5′-yl)-N-(2,2,2-trifluoroethyl)-1H-pyrrolo[2,3-b]pyridine-2-carboxamide] |
| 0.005 to 0.1 | 0.01 to 0.1 | 0.01 to 0.1 | COC(=O)c1cc2c(-c3cncc(-c4ccc(N5CCCC5=O)cc4C)c3)ccnc2[nH]1 [Example 171, methyl 4-(5-(2-methyl-4-(2-oxopyrrolidin-1-yl)phenyl)pyridin-3-yl)-1H-pyrrolo[2,3-b]pyridine-2-carboxylate] |
| 0.1 to 1 | 2.5 to 5 | 2.5 to 5 | Cc1cc(N2CCCC2=O)ccc1-c1cncc(-c2cn(C)c3ncc(C(C)(C)O)cc23)c1 [Example 168, 1-(4-(5-(5-(2-hydroxypropan-2-yl)-1-methyl-1H-pyrrolo[2,3-b]pyridin-3-yl)pyridin-3-yl)-3-methylphenyl)pyrrolidin-2-one] |
| < 5 | > 5 | > 5 | CN(C)C(=O)c1ccc(-c2cc(-c3cccnc3N)cnc2N)nc1 [Example 120, 2′,2″-diamino-N,N-dimethyl-[2,3′:5′,3″-terpyridine]-5-carboxamide] |
| 0.1 to 1 | 0.1 to 1 | 0.01 to 0.1 | CC(C)CNC(=O)c1cc2c(-c3cnc(N)c(-c4ccc(C(=O)N(C)C)cn4)c3)ccnc2[nH]1 [Example 131, 4-(2′-amino-5-(dimethylcarbamoyl)-[2,3′-bipyridin]-5′-yl)-N-isobutyl-1H-pyrrolo[2,3-b]pyridine-2-carboxamide] |
| 0.1 to 1 | 0.1 to 1 | 0.1 to 1 | Cc1nc(-c2cncc(-c3ccc(N4CCCC4=O)cc3)c2)c2cn[nH]c2n1 [Example 225, 1-(4-(5-(6-methyl-2H-pyrazolo[3,4-d]pyrimidin-4-yl)pyridin-3-yl)phenyl)pyrrolidin-2-one] |
| 0.005 to 0.1 | 0.1 to 1 | 0.1 to 1 | CNC(=O)c1cc2c(-c3cncc(-c4ccc(N5CCCC5=O)cc4C)c3)ccnc2o1 [Example 170, N-methyl-4-(5-(2-methyl-4-(2-oxopyrrolidin-1-yl)phenyl)pyridin-3-yl)furo[2,3-b]pyridine-2-carboxamide] |
| 0.1 to 1 | 1 to 2.5 | 0.1 to 1 | Cc1cc(N2CCCC2=O)ccc1-c1cncc(-c2ccnc3[nH]c(C(=O)N(C)C)cc23)c1 [Example 169, N,N-dimethyl-4-(5-(2-methyl-4-(2-oxopyrrolidin-1-yl)phenyl)pyridin-3-yl)-1H-pyrrolo[2,3-b]pyridine-2-carboxamide] |
